This note sets out measurements from ChEMBL document CHEMBL2073911, “Sensitivity of bile acid transport by organic anion-transporting polypeptides to intracellular pH” (Biochim Biophys Acta, 2003).

For this series, the target named is T1, Solute carrier organic anion transporter family member 1A1 (Rattus norvegicus, UniProt P46720).
T1 sequence (P46720 whole entry): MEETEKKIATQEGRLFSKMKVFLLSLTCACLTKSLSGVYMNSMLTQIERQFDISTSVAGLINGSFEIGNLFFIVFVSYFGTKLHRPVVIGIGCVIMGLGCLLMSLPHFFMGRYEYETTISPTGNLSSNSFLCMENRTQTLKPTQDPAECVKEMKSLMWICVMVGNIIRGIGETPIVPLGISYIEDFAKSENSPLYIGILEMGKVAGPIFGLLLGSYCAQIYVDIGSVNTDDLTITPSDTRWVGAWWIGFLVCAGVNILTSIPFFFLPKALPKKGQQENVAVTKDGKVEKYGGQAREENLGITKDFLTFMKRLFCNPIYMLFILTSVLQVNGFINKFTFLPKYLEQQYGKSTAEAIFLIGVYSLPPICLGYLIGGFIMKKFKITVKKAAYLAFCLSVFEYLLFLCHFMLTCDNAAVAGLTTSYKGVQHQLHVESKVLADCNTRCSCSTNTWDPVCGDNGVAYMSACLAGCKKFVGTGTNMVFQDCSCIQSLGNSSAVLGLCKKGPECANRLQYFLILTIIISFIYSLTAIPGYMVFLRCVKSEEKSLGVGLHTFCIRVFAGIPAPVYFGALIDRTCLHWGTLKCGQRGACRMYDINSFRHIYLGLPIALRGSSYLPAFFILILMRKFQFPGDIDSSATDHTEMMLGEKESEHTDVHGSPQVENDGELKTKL
In words: TP_TRANSPORTER: uptake in Oatp1-expressing CHO-03 cell. It is filed as functional, cell-based. The conditions noted are these: hamster.

As to `C[C@H](CCC(=O)NCC(=O)O)[C@H]1CC[C@H]2[C@@H]3[C@H](O)C[C@@H]4C[C@H](O)CC[C@]4(C)[C@H]3C[C@H](O)[C@]12C` [GLYCOCHOLIC ACID], the Activity result was “substrate [+]”.
